Reference: patent US11957687B2 (REGENERON PHARMACEUTICALS, INC., priority 2019, dated 2024)

Experiments:
HSD17B13 = HSD17B13 (Homo sapiens (Human), UniProt Q7Z5P4); test: HSD17B13 enzymatic inhibition assay (150 nM or 50 nM HSD17B13); type: biochemical; conditions: 50 nM HSD17B13; read-out: Inhibition of 50 nM of HSD17B13 IC50
[1] = Microsome stability assay, human liver microsomes; type: in vitro ADME; conditions: 1 μM compound, 0.5 mg/mL microsomal protein; for microsomal CLint at 1 h, 1 µM / half-life at 1 h, 1 µM: human, human liver microsomes, pooled, NADPH, 37° C.; for microsomal CLint at 1 h, 1 µM: read-out: Microsome Stability Human liver microsomes Cl; for half-life at 1 h, 1 µM: read-out: Microsome Stability Human liver microsomes T½
How it was run: (§1)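 Compound at 1 μM incubated at 37° C with pooled human or mouse liver microsomes (0.5 mg/mL protein) plus NADPH regenerating system, sampled at 0–60 min; a 60-min no-NADPH incubation also included. Single replicate; LC/MS/MS disappearance from analyte/internal standard peak area ratios, without standard curve.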

[2] = Microsome stability assay, mouse liver microsomes; type: in vitro ADME; conditions: 1 μM compound, 0.5 mg/mL microsomal protein
How it was run: as §1

HSD17B1 = HSD17B1 (Homo sapiens (Human), UniProt P14061); test: HSD17B1 enzymatic blocking assay; type: biochemical; conditions: 25 μM Estradiol, 500 μM NAD; read-out: Inhibition of HSD17B1 IC50
How it was run: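 Activity followed as NADH formed on estradiol oxidation, read by NADH-Glo luminescence after 1 h detection in the dark at room temperature. Compounds preincubated with enzyme 30 min at room temperature; 0.5% DMSO and no-substrate controls. IC50 fitted from luminescence.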

HSD17B2 = HSD17B2 (Homo sapiens (Human), UniProt P37059); test: HSD17B2 enzymatic blocking assay; type: biochemical; conditions: 1.8 μM Estradiol, 650 μM NAD; read-out: Inhibition of HSD17B2 IC50
How it was run: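 Mammalian-expressed enzyme at 2 ng/μL in 50 mM Tris-HCl pH 7.5 with detergents/BSA, preincubated 15 min at 20° C. with compound (10-point titration). Reaction with 1.8 μM estradiol and 650 μM NAD ran 45 min at 20° C.; NADH measured by NADH-Glo luminescence and IC50 derived.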

HSD17B4 = HSD17B4 (Homo sapiens (Human), UniProt P51659); test: HSD17B4 enzymatic blocking assay; type: biochemical; conditions: 23.46 μM Estradiol, 1500 μM NAD; read-out: Inhibition of HSD17B4 IC50
Protocol: To screen compounds of the disclosure for their ability to block HSD17B4 function, an enzymatic blocking assay was performed. For the assay, HSD17B4 activity was measured by detecting NADH formation from oxidation of Estradiol using a NADH Glo luminescence assay (Promega, #Cat. No. G9062). Compounds of the disclosure were evaluated in a dose titration assay where the compounds were titrated at 10-point dose curve using an Echo-555 liquid handling dispenser. HSD17B4 (SEQ ID NO: 4, expressed in mammalian cells) was added at a final concentration of 2.5 ng/μL in a buffer containing 50 mM Tris-HCl, pH 7.5, Pluronic F-127 0.05%, Tween20 0.01%, BSA 0.01%, into a low volume white 384-well assay plate. Compounds were incubated with the enzyme for 15 min at 20° C. The assay reaction was then initiated by addition of 23.46 μM Estradiol substrate (Sigma, catalog #E2758-250MG, CAS: 50-28-2) and 1500 μM NAD co-factor, and the reaction mixture was incubated for 45 min at 20° C. DMSO at a concentration of 0.5% was used as a negative control and a ‘no substrate’ control was used a positive control in the assay. Detection reagent was then added as per manufacturer's instructions, and the plate was subsequently incubated in the dark for 1 hour at room temperature, NADH generated was detected in the luminescence mode on the Envision Perkin Elmer plate reader. The IC50 values were determined using Dotmatics analysis software.

HSD17B10 = HSD17B10 (Homo sapiens (Human), UniProt Q99714); test: HSD17B10 enzymatic blocking assay; type: biochemical; conditions: 25 μM Estradiol, 500 μM NAD; read-out: Inhibition of HSD17B10 IC50
Protocol: To screen compounds of the disclosure for their ability to block HSD17B10 function, an enzymatic blocking assay was performed. For the assay, HSD17B10 activity was measured by detecting NADH formation from oxidation of Estradiol using a NADH Glo luminescence assay (Promega, #Cat. No. G9062). Compounds of the disclosure were evaluated in a dose titration assay where the compounds were titrated at 10-point dose curve using an Echo-555 liquid handling dispenser. HSD17B10 (Seq. ID NO: 5, expressed in mammalian cells) was added at a final concentration of 31.25 ng/well in a buffer containing 0.2M Tris-HCl, pH 7.5, into a low volume white 384-well assay plate. Compounds were incubated with the enzyme for 30 minutes at room temperature. The assay reaction was then initiated by addition of 25 μM Estradiol substrate (Sigma, catalog #E2758-250MG, CAS: 50-28-2) and 500 μM NAD co-factor, and the reaction mixture was incubated for 3 hours at room temperature. DMSO at a concentration of 0.5% was used as a negative control and a ‘no substrate’ control was used a positive control in the assay. Detection reagent was then added as per manufacturer's instructions, and the plate was subsequently incubated in the dark for 1 hour at room temperature, NADH generated was detected in the luminescence mode on the Envision Perkin Elmer plate reader. The IC50 values were determined using Dotmatics analysis software.

[3] = mouse, mouse liver microsomes, pooled, NADPH, 37° C., read-out: Microsome Stability Mouse liver microsomes Cl
[4] = mouse, mouse liver microsomes, pooled, NADPH, 37° C., read-out: Microsome Stability Mouse liver microsomes T½

Chain of HSD17B4 (P51659 other isoform, or with tags, fused parts or gaps): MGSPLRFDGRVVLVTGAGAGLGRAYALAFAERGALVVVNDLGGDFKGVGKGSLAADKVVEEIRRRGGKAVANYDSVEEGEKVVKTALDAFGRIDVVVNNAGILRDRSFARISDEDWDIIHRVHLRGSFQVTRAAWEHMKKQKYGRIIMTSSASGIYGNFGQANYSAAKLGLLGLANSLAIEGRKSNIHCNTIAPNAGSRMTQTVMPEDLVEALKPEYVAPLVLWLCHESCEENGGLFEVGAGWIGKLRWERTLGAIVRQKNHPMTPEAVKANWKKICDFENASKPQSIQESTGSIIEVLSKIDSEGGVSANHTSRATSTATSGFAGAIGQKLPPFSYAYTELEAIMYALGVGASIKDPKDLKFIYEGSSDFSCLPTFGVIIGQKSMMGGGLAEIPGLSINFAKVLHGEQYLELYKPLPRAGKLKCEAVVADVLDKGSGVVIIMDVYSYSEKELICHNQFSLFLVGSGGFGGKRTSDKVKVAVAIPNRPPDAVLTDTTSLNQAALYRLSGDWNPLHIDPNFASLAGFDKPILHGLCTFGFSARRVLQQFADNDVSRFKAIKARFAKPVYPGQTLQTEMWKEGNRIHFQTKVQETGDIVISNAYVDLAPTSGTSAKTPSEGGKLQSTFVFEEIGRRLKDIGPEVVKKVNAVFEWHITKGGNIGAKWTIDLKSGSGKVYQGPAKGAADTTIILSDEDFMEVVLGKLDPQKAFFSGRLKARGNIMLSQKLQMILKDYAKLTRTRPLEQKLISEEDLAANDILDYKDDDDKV
Chain of HSD17B1 (P14061 other isoform, or with tags, fused parts or gaps): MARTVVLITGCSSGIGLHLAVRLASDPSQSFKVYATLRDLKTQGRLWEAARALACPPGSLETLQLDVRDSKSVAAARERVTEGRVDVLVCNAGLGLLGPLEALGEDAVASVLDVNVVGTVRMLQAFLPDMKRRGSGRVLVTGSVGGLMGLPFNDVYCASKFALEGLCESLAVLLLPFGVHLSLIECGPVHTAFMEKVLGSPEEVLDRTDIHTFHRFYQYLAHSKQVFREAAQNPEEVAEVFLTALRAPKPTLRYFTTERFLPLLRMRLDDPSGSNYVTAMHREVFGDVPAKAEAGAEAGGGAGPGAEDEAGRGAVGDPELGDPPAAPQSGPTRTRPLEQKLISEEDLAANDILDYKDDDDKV
Chain of HSD17B2 (P37059 other isoform, or with tags, fused parts or gaps): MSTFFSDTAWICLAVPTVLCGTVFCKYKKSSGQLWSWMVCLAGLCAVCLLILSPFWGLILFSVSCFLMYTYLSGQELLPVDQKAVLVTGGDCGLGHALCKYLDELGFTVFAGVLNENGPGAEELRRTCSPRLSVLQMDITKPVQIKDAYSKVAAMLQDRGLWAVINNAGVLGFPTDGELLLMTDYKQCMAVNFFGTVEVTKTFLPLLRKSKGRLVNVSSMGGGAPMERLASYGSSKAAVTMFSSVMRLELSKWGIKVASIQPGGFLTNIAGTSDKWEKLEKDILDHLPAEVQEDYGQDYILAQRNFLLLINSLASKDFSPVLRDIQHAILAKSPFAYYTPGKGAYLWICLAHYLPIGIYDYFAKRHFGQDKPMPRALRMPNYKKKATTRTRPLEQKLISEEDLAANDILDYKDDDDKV
Chain of HSD17B13 (Q7Z5P4 other isoform, or with tags, fused parts or gaps): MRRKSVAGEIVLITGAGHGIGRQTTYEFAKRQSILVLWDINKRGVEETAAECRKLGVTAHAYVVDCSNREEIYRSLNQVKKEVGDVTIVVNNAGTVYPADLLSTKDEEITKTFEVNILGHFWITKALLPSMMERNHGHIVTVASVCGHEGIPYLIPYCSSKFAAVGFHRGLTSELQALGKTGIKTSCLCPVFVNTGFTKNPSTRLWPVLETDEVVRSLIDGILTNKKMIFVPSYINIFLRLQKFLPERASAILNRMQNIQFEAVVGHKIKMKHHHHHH
Chain of HSD17B10 (Q99714 other isoform, or with tags, fused parts or gaps): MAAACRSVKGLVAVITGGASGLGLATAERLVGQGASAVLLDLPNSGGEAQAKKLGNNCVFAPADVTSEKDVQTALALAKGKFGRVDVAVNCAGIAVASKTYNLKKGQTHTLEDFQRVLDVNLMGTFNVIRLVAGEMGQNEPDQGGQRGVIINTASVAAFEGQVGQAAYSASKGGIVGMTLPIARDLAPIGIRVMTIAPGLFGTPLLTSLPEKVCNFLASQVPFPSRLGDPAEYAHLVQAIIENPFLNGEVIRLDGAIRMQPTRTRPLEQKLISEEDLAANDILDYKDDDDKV

Row | SMILES | IC50 (HSD17B13) [µM] | Microsome Stability Human liver microsomes % Remaining @60 min [1] [%] | microsomal CLint at 1 h, 1 µM [1] [µL/min/mg] | half-life at 1 h, 1 µM [1] [min] | Microsome Stability Mouse liver microsomes % Remaining @60 min [2] [%] | microsomal CLint at 1 h, 1 µM [2, 3] [µL/min/mg] | half-life at 1 h, 1 µM [2, 4] [min] | IC50 (HSD17B1) [µM] | IC50 (HSD17B2) [µM] | IC50 (HSD17B4) [µM] | IC50 (HSD17B10) [µM] | microsomal CLint at 1 μM [2, 3] [µL/min/mg] | half-life at 1 μM [2, 4] [min]
1 | O=C(NC1c2ccc(Cl)cc2Oc2cccc(Cl)c21)c1ccc(C(F)(F)F)[nH]c1=O (stereo not drawn) [Compound 51, N-(1,6-dichloro-9H-xanthen-9-yl)-2-oxo-6-(trifluoromethyl)-1,2-dihydropyridine-3-carboxamide] | 0.23 | 44.00 | 23 | 60.3 | 73.50 | 10.4 | 133 | 4.55 | 8.71 | > 100 | > 30 |  | 
2 | O=C(NC1c2ccccc2Oc2cc(Cl)ccc21)c1ccc(C(F)(F)F)[nH]c1=O (stereo not drawn) [Compound 15A, N-(3-chloro-9H-xanthen-9-yl)-2-oxo-6-(trifluoromethyl)-1,2-dihydropyridine-3-carboxamide] | 0.16 |  |  |  |  |  |  | 3.9 | 6.33 | > 100 | > 30 |  | 
3 | Cc1ccc2c(c1)Oc1cccc(C)c1C2NC(=O)c1ccc(C(F)(F)F)[nH]c1=O (stereo not drawn) [Compound 53, N-(1,6-dimethyl-9H-xanthen-9-yl)-2-oxo-6-(trifluoromethyl)-1,2-dihydropyridine-3-carboxamide] | 0.31 |  |  |  |  |  |  | 3.69 | 10.7 | 47.1 | > 30 |  | 
4 | O=C(NC(c1ccccc1)c1ccc(-c2cccnc2)cc1)c1ccc(C(F)(F)F)[nH]c1=O (stereo not drawn) [Compound 93, N-(phenyl(4-(pyridin-3-yl)phenyl)methyl)-2-oxo-6-(trifluoromethyl)-1,2-dihydropyridine-3-carboxamide] | 0.6 |  |  |  |  |  |  | 15.6 | 10.7 | 66.2 | > 30 |  | 
5 | O=C(NC(c1ccccc1)c1ccc2c(c1)CCCC2)c1ccc(C(F)(F)F)[nH]c1=O (stereo not drawn) [Compound 80, N-(phenyl(5,6,7,8-tetrahydronaphthalen-2-yl)methyl)-2-oxo-6-(trifluoromethyl)-1,2-dihydropyridine-3-carboxamide] | 0.36 |  |  |  |  |  |  | 3.65 | 8.91 | 48.7 | > 30 |  | 
6 | CCc1ccc2c(c1)Oc1ccccc1C2NC(=O)c1ccc(C(F)(F)F)[nH]c1=O (stereo not drawn) [Compound 140, N-(3-ethyl-9H-xanthen-9-yl)-2-oxo-6-(trifluoromethyl)-1,2-dihydropyridine-3-carboxamide] | 0.2 |  |  |  |  |  |  | 3.53 | 10.7 | 54.2 | > 30 |  | 
7 | Cc1ccc(C(NC(=O)c2cc(C)c(C(F)(F)F)[nH]c2=O)c2ccc(C)cc2)cc1 [Compound 115, N-(di-p-tolylmethyl)-5-methyl-2-oxo-6-(trifluoromethyl)-1,2-dihydropyridine-3-carboxamide] | 0.45 |  |  |  |  |  |  | 11.2 | 11 | > 100 | > 30 |  | 
8 | O=C(NC1c2ccccc2Oc2cc(CC(F)(F)F)ccc21)c1ccc(C(F)(F)F)[nH]c1=O (stereo not drawn) [Compound 141, 2-oxo-N-(3-(2,2,2-trifluoroethyl)-9H-xanthen-9-yl)-6-(trifluoromethyl)-1,2-dihydropyridine-3-carboxamide] | 0.36 |  |  |  |  |  |  | 3.62 | 7.3 | 58.2 | > 30 |  | 
9 | O=C(NC(c1ccccc1)c1ccc2c(c1)COC2)c1ccc(C(F)(F)F)[nH]c1=O (stereo not drawn) [Compound 94, N-((1,3-dihydroisobenzofuran-5-yl)(phenyl)methyl)-2-oxo-6-(trifluoromethyl)-1,2-dihydropyridine-3-carboxamide] |  |  |  |  |  |  |  | 11.3 | 18.8 | 96.6 | > 30 |  | 
10 | Cc1ccc2c(c1)Oc1ccccc1C2NC(=O)c1ccc(C(F)(F)F)[nH]c1=O (stereo not drawn) [Compound 55, N-(3-methyl-9H-xanthen-9-yl)-2-oxo-6-(trifluoromethyl)-1,2-dihydropyridine-3-carboxamide] | 0.18 |  |  |  |  |  |  | 4.65 | 9.15 | > 100 | > 30 |  | 
11 | Cc1ccc2c(c1)Oc1ccccc1C2NC(=O)c1c(C)cc(C(F)(F)F)[nH]c1=O (stereo not drawn) [Compound 198, 4-methyl-N-(3-methyl-9H-xanthen-9-yl)-2-oxo-6-(trifluoromethyl)-1,2-dihydropyridine-3-carboxamide] | 0.4 |  |  |  |  |  |  | > 30 | > 100 | > 100 | > 30 |  | 
12 | CC[C@@H]1Oc2cc(C)ccc2[C@H]1NC(=O)c1ccc(C(F)(F)F)[nH]c1=O [Compound 360, N-((2S,3R)-2-ethyl-6-methyl-2,3-dihydrobenzofuran-3-yl)-2-oxo-6-(trifluoromethyl)-1,2-dihydropyridine-3-carboxamide] | 0.59 | 1 | 318 | 4.36 | 36.20 | 32.8 | 42.2 | > 30 | 23.1 |  |  |  | 
13 | CCC1CCc2cc(OC)ccc2C1NC(=O)c1ccc(C(F)(F)F)[nH]c1=O (stereo not drawn) [Compound 299, N-(2-ethyl-6-methoxy-1,2,3,4-tetrahydronaphthalen-1-yl)-2-oxo-6-(trifluoromethyl)-1,2-dihydropyridine-3-carboxamide] | 0.1 | 11 | 66.8 | 20.8 | 43.50 | 27.4 | 50.6 | > 30 | 22.6 |  |  |  | 
14 | COC1Cc2cc(C)ccc2C1NC(=O)c1ccc(C(F)(F)F)[nH]c1=O (stereo not drawn) [Compound 351, N-(2-methoxy-5-methyl-2,3-dihydro-1H-inden-1-yl)-2-oxo-6-(trifluoromethyl)-1,2-dihydropyridine-3-carboxamide] | 0.51 | 0.73 | 157 | 8.84 | 83.70 |  |  | > 30 | 65.4 |  |  | < 9.6 | > 145
